Read-outs that look alike come from different tables or passages of the source. Bounds are passed on as bounds.

These results are taken from patent publication US10500202B2, “Pharmaceutical formulation containing tadalafil” (Druggability Technologies IP Holdco Limited, priority 2016, dated 2019).

The conditions of data set [1]: 10 mg/kg, beagle dog, cited from earlier work.
The conditions of data set [2]: cited from earlier work.
The nature of data set [3]: PAMPA permeability. It counts as in vitro ADME. Here is the method:
PAMPA permeability of the selected compositions was measured in order to select the pharmaceutical Tadalafil compositions having the best in-vitro performance (FIG. 2). PAMPA permeability measurements were performed as described by M. Kansi et al. (Journal of medicinal chemistry, 41, (1998) pp 1007) with modifications based on S. Bendels et al (Pharmaceutical research, 23 (2006) pp 2525). Permeability was measured in a 96-well plate assay across an artificial membrane composed of dodecane with 20% soy lecithin supported by a PVDF membrane (Millipore, USA). The receiver compartment was phosphate buffered saline (pH 7.0) supplemented with 1% sodium dodecyl sulfate. The assay was performed at room temperature; incubation time was 4 hours in ultrapurified water or 10-20 and 30 minutes in simulates saliva, respectively. The concentration in the receiver compartment was determined by UV-VIS spectrophotometry (Thermo Scientific Genesys S10).
PAMPA permeabilities of Tadalafil pharmaceutical compositions in water (H2O), FaSSIF (Fa) and FeSSIF (Fe) media were above 7.6×10^−6 cm/s, 7.2×10^−6 cm/s and 4.3×10^−6 cm/s, respectively, while it was 0.6×10^−6 cm/s, 0.6×10^−6 cm/s and 0.8*10^−6 cm/s in water, FaSSIF and FeSSIF media for the unformulated, crystalline reference. PAMPA permeability of Cialis® in water, FaSSIF and FeSSIF media was above 0.9×10^−6 cm/s, 0.8×10^−6 cm/s and 1.1×10^−6 cm/s, respectively.
PAMPA permeability of the solid Tadalafil pharmaceutical compositions was used to monitor the physical stability of the pharmaceutical formulation. PAMPA permeability was measured after storage at different conditions.
For orientation: In PAMPA a lipid-coated filter parts donor from acceptor wells.

For data set [4] the following is noted: cited from earlier work. This is another data set of the same source.

Regarding `CN1CC(=O)N2[C@H](c3ccc4c(c3)OCO4)c3[nH]c4ccccc4c3C[C@@H]2C1=O` [Tadalafil], the “Estimated F” value in data set [1] (iv, published (reference)) was 100%. Besides, in data set [1] (iv, published), the AUC24 is 22894 ng·h/mL and the highest concentration (Cmax) was 3663 ng/mL. Besides, in data set [1] (oral, published), the AUC24 is 4109 ± 3141 ng·h/mL, the peak concentration (Cmax) is 526 ± 281 ng/mL, the “Estimated F” value is listed as 18% and the tmax is reported as 3 h. Further, in data set [2] (dose range of 2.5 to 20 mg, healthy subjects), the “Exposure (AUC) versus dose” value is reported as “increases proportionally with dose”. In data set [2] (healthy subjects), the “Fraction of administered dose in semen” value was “Less than 0.0005%”, the Mean oral clearance was 2.5 L/h and the Mean terminal half-life is 17.5 h. In addition, in data set [2] (once-daily dosing), the “Steady-state exposure relative to a single dose” value is on record as “approximately 1.6 fold” and the “Time to steady-state plasma concentrations” value is on record as at most 5 days. Further, the “Mean apparent volume of distribution” value in data set [2] (oral administration) is reported as “approximately 63 L”. Further, the “Effect of food on rate and extent of absorption” value in data set [2] (oral) was “not influenced by food”. In data set [2] (predominantly as metabolites), the “Excretion in the feces” value is reported as “approximately 61 % of the dose” and the “Excretion in the urine” value is “approximately 36 % of the dose”. The tmax values in data set [2] (range) is 0.5 to 6 h. Moreover, in data set [2] (therapeutic concentrations), the “Fraction in plasma bound to proteins” value was 94%. The molecule also registered a Papp in data set [3] (pH 7, FaSSIF) of 0.6 ×10⁻⁶ cm/s. This molecule also had a Papp in data set [3] (pH 7, FeSSIF) of 0.8 ×10⁻⁶ cm/s. For the same molecule, in data set [3] (pH 7, Water), the apparent permeability (Papp) at 4 h is 0.6 ×10⁻⁶ cm/s. Also, in data set [4] (ethanol), the Solubility entry is given as “very slightly soluble”. The Solubility result in data set [4] (water) was “practically insoluble”.
With `Cc1cccc(O)c1O` [Methylcatechol], the “Methylcatechol concentrations relative to glucuronide concentrations” value in data set [2] (circulating metabolites of Tadalafil) is recorded as “less than 10%”.

Broadly, the Cmax is the peak of the concentration-time curve. The Papp is a coefficient for how fast a substance crosses the barrier. A lower Papp goes with poor permeation.
